These are literature values, as cited in patent US20200225249A1, “COMPOSITIONS AND METHODS FOR THE DIAGNOSIS AND TREATMENT OF DISEASES OF THE LIVER” (Viscient Biosciences, Inc., priority 2019, published 2020).

The test system of one data set is rat hepatocytes. The following applies: Shin M, et al., 1999.
In the next data set the test system is NASH patients. The following applies: clinical trial; Laurin J, et al., 1996.
The test system of the next data set is QPRT. The following applies: rat hepatocytes; Shin M, et al., 1999.
Data set [1] relates to primary neurons and astrocytes. The note with it: Braidy et al, 2011.

With `CCOC(=O)C(C)(C)Oc1ccc(Cl)cc1` [Clofibrate], in the data set on rat hepatocytes, the “NAD+ levels” value is reported as “increases NAD+ levels”. Moreover, the “symptoms of NASH patients” value in the data set on NASH patients is given as “failed to improve the symptoms”. In addition, the QPRT expression entry in the data set on QPRT is reported as “stimulates QPRT expression”.

Regarding `O=C(O)c1ccccc1C(=O)O` [Phthalic acid, 1,2-Benzenedicarboxylic acid], the cell viability entry in data set [1] is listed as “reduced cell viability”.
